Results as given in ChEMBL document CHEMBL2034833, “Synthesis of chalcone-amidobenzothiazole conjugates as antimitotic and apoptotic inducing agents” (Bioorg Med Chem, 2012).

Legend:
SF-539 = experiment: Growth inhibition of human SF539 cells after 48 hrs by sulforhodamine B assay; format: functional; conditions: SF-539, 48 h
HOP-62 = experiment: Growth inhibition of human HOP62 cells after 48 hrs by sulforhodamine B assay; format: functional; conditions: HOP-62, 48 h
NCI-H522 = experiment: Growth inhibition of human NCI-H522 cells after 48 hrs by sulforhodamine B assay; format: functional; conditions: NCI-H522, 48 h
ACHN = experiment: Cytotoxicity against human ACHN cells after 48 hrs by MTT assay; format: functional, cell-based
HOP-92 = experiment: Growth inhibition of human HOP92 cells after 48 hrs by sulforhodamine B assay; format: functional; conditions: HOP-92, 48 h
HCT-15 = experiment: Growth inhibition of human HCT15 cells after 48 hrs by sulforhodamine B assay; format: functional; conditions: HCT-15, 48 h
COLO 205 = experiment: Growth inhibition of human COLO205 cells after 48 hrs by sulforhodamine B assay; format: functional; conditions: COLO 205, 48 h
HCT-116 = experiment: Growth inhibition of human HCT116 cells after 48 hrs by sulforhodamine B assay; format: functional; conditions: HCT-116, 48 h
TK-10 = experiment: Growth inhibition of human TK10 cells after 48 hrs by sulforhodamine B assay; format: functional; conditions: TK-10, 48 h
SR = experiment: Growth inhibition of human SR cells after 48 hrs by sulforhodamine B assay; format: functional
NCI/ADR-RES = experiment: Growth inhibition of human NCI/ADR-RES cells after 48 hrs by sulforhodamine B assay; format: functional
A549 [1] = experiment: Growth inhibition of human A549 cells after 48 hrs by sulforhodamine B assay; format: functional; conditions: A549, 48 h
A549 [2] = experiment: Cell cycle arrest in human A549 cells assessed as cell accumulation at subG1 phase at 2 uM after 48 hrs by propidium iodide staining based flow cytometry (reference value: […]); format: functional
SW-620 = experiment: Growth inhibition of human SW620 cells after 48 hrs by sulforhodamine B assay; format: functional; conditions: SW-620, 48 h
A-375 = experiment: Cytotoxicity against human A375 cells after 48 hrs by MTT assay; format: functional, cell-based; conditions: A-375, 48 h
IGROV-1 = experiment: Growth inhibition of human IGROV1 cells after 48 hrs by sulforhodamine B assay; format: functional; conditions: IGROV-1, 48 h
OVCAR-3 = experiment: Growth inhibition of human OVCAR3 cells after 48 hrs by sulforhodamine B assay; format: functional; conditions: OVCAR-3, 48 h
A498 = experiment: Growth inhibition of human A498 cells after 48 hrs by sulforhodamine B assay; format: functional; conditions: A498, 48 h
LOX IMVI = experiment: Growth inhibition of human LOXIMVI cells after 48 hrs by sulforhodamine B assay; format: functional
A549 [3] = experiment: Induction of apoptosis in human A549 cells assessed as viable cells at 2 uM after 48 hrs by annexin-V FITC/propidium iodide staining based FACS analysis; format: functional; conditions: A549, 48 h, read-out: Activity
CAKI-1 = experiment: Growth inhibition of human CAKI-1 cells after 48 hrs by sulforhodamine B assay; format: functional; conditions: CAKI-1, 48 h
HCC 2998 = experiment: Growth inhibition of human HCC2998 cells after 48 hrs by sulforhodamine B assay; format: functional; conditions: HCC 2998, 48 h
MOLT-4 = experiment: Growth inhibition of human MOLT4 cells after 48 hrs by sulforhodamine B assay; format: functional; conditions: MOLT-4, 48 h
SF-295 = experiment: Growth inhibition of human SF295 cells after 48 hrs by sulforhodamine B assay; format: functional; conditions: SF-295, 48 h
A549 [4] = experiment: Cell cycle arrest in human A549 cells assessed as cell accumulation at G2/M phase at 4 uM after 48 hrs by propidium iodide staining based flow cytometry (reference value: 23.75%); format: functional
A549 [5] = experiment: Cell cycle arrest in human A549 cells assessed as cell accumulation at G2/M phase at 2 uM after 48 hrs by propidium iodide staining based flow cytometry (reference value: 23.75%); format: functional
U-251 = experiment: Growth inhibition of human U251 cells after 48 hrs by sulforhodamine B assay; format: functional; conditions: U-251, 48 h
OVCAR-8 = experiment: Growth inhibition of human OVCAR8 cells after 48 hrs by sulforhodamine B assay; format: functional; conditions: OVCAR-8, 48 h
A549 [6] = experiment: Induction of apoptosis in human A549 cells assessed as late apoptotic cells at 2 uM after 48 hrs by annexin-V FITC/propidium iodide staining based FACS analysis; format: functional
[7] = Inhibition of tubulin polymerization after 1 hr by fluorescence assay
SF-268 = experiment: Growth inhibition of human SF268 cells after 48 hrs by sulforhodamine B assay; format: functional; conditions: SF-268, 48 h
A549 [8] = experiment: Cell cycle arrest in human A549 cells assessed as cell accumulation at G0/G1 phase at 2 uM after 48 hrs by propidium iodide staining based flow cytometry (reference value: 70.15%); format: functional
UACC-257 = experiment: Growth inhibition of human UACC257 cells after 48 hrs by sulforhodamine B assay; format: functional; conditions: UACC-257, 48 h
HT-29 = experiment: Cytotoxicity against human HT-29 cells after 48 hrs by MTT assay; format: functional, cell-based; conditions: HT-29, 48 h, read-out: IC50
UO-31 = experiment: Growth inhibition of human UO31 cells after 48 hrs by sulforhodamine B assay; format: functional; conditions: UO-31, 48 h
A549 [9] = experiment: Induction of apoptosis in human A549 cells assessed as increase in caspase3 activity using AFC-conjugated Ac-DEVD as substrate at 2 uM after 48 hrs by fluorescence assay relative to control; format: functional
PC-3 = experiment: Growth inhibition of human PC3 cells after 48 hrs by sulforhodamine B assay; format: functional; conditions: PC-3, 48 h
NCI-H226 = experiment: Growth inhibition of human NCI-H226 cells after 48 hrs by sulforhodamine B assay; format: functional; conditions: NCI-H226, 48 h
DU-145 = experiment: Growth inhibition of human DU145 cells after 48 hrs by sulforhodamine B assay; format: functional; conditions: DU-145, 48 h

- GI50 (NCI-H522): 670 nM
- GI50 (HCT-15): 400 nM
- GI50 (COLO 205): 6.37 µM
- GI50 (HCT-116): 1430 nM
- GI50 (A549 [1]): 1990 nM
- GI50 (SW-620): 1080 nM
- GI50 (OVCAR-3): 1520 nM
- GI50 (HCC 2998): 6.18 µM
- GI50 (MOLT-4): 2890 nM
- GI50 (U-251): 700 nM
- GI50 (OVCAR-8): 1540 nM
- IC50 [7]: 5.2 µM
- GI50 (PC-3): 3.14 µM
- GI50 (NCI-H226): 3.35 µM
- GI50 (DU-145): 1560 nM
Compound: COc1ccc(/C=C/C(=O)c2cc(OC)c(OC)c(OC)c2)cc1OCC(=O)Nc1nc2ccc(OC(F)(F)F)cc2s1
- GI50 (SF-539): 300 nM
- GI50 (HOP-62): 2120 nM
- IC50 (ACHN): 1730 nM
- GI50 (HOP-92): 2140 nM
- GI50 (TK-10): 2080 nM
- GI50 (SR): 390 nM
- GI50 (NCI/ADR-RES): 490 nM
- Activity (A549 [2]): 4.5%
- IC50 (A-375): 2400 nM
- GI50 (IGROV-1): 2540 nM
- GI50 (A498): 7.4 µM
- GI50 (LOX IMVI): 470 nM
- viability at 2 µM (A549 [3]): 30.4%
- GI50 (CAKI-1): 2200 nM
- GI50 (SF-295): 2210 nM
- Activity (A549 [4]): 83.21%
- Activity (A549 [5]): 80.73%
- Activity (A549 [6]): 74.9%
- GI50 (SF-268): 1200 nM
- Activity (A549 [8]): 8.51%
- GI50 (UACC-257): 8.08 µM
- IC50 (HT-29): 1100 nM
- GI50 (UO-31): 1610 nM
- fold change (FC) (A549 [9]): 4
